Laboratory results published in patent publication US20260132123A1, “ABAD INHIBITOR COMPOUNDS” (UNIVERSITY COURT OF THE UNIVERSITY OF ST ANDREWS, priority 2021, published 2026).
pEC50: −log10 of the molar value.

Molecular target: T1, 17β-HSD10 (Homo sapiens, UniProt Q99714)
T1 construct: Histev (histidine tag with TEV site) (N, cleaved yes); made in house; host or cells: E. coli BL21-CodonPlus
T1 sequence (Q99714 1-261): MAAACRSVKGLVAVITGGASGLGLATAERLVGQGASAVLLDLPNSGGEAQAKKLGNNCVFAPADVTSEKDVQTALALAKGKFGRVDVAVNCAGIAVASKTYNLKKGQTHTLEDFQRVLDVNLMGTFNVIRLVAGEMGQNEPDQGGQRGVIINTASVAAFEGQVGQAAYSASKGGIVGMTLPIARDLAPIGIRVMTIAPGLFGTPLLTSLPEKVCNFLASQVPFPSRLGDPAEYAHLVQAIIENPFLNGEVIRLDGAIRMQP
Assay: 17β-HSD10 (ABAD) enzyme inhibition assay, NADH oxidation read at 340 nm (primary screen and dose response)
Format: biochemical
Settings: for pEC50 / Max. Effect (%) / Hill Slope / Max. Fit / Min. Fit: recombinant 17βHSD10 enzyme assay; for Hill Slope / Max. Fit / Min. Fit: curve fit
Experimental: Cell pellets of E. coli BL21-CodonPlus cells containing Histev-17β-HSD10 protein were re-suspended for 30 min, 4° C., in lysis buffer (20 mM NaH2PO4, 30 mM imidazole, 500 mM NaCl, 10% (v/v) glycerol, pH 7.5) with the addition of complete ethylenediaminetetraacetic acid (EDTA)-free protease inhibitor tablets (Roche), lysozyme (1 mg/mL), deoxyribonuclease (DNase) (20 μg/mL) and Triton X-100 (0.1% (v/v)). Cells were lysed by passage through a cell disruptor at 30 kPSI (Constant Systems Ltd) and the lysate was cleared by centrifugation (Sorvall Evolution RC, rotor S5-34 55-34 angle, 20500 rpm, 30 min, 4° C.). Cleared lysate was filtered (0.45 μm membrane; Whatman) then applied to a Ni-nitrilotriacetic acid (NTA) (GE Healthcare) column pre-washed with lysis buffer and protein eluted with 300 mM imidazole buffer (20 mM NaH2PO4, 300 mM imidazole, 500 mM NaCl, 10% (v/v) glycerol, pH 7.5). […] Protein digestion and dialysis was carried out at 4° C. for 16 h.
Complete digestion was firstly checked by sodium dodecyl sulfate-polyacrylamide gel electrophoresis (SDS-PAGE), then fully digested protein was passed over a second Ni-column and the flow-through, containing 17β-HSD10 protein, was concentrated using a Vivaspin column (10 kDa MWCO, GE Healthcare) to ˜7 mL before final purification using gel filtration to remove imidazole (Hi-Load 16/60 Superdex 75 prep grade column, GE Healthcare, flow rate 1.5 mL/min). Protein was eluted in gel filtration buffer (10 mM trisaminomethane (Tris-HCl), 150 mM NaCl, 10% glycerol, pH 7.5) and concentrated (Vivaspin column (10 kDa molecular weight cut off (MWCO), GE Healthcare)) to 10 mg/mL. Aliquots (10 μL) were taken and flash frozen in liquid nitrogen before final storage at −80° C.
The assay buffer used contains: 10 mM Tris. HCl (pH 7.4), 150 mM NaCl, 1 mM DTT, 0.005% Tween (polysorbate 20) and 0.01% bovine serum albumin (BSA). As indicated for some experiments the assay buffer was supplemented with 100 units/ml bovine liver catalase. All experiments were conducted in clear bottom 384-well or 1536-well low volume microplates (Corning) with a final assay volume of 20 μL and the reaction progress was monitored by oxidation of NADH as determined by reduction in absorbance at 340 nm read on the EnVision plate reader (PerkinElmer).
For primary screening an endpoint assay format was adopted in which an Echo acoustic liquid dispenser (Labcyte) was used to transfer 20 nL of either reference standard, dimethylsulfoxide (DMSO) control ([…] final assay concentration (FAC)) or test compounds (10 μM FAC) to the assay plate. 10 μL of 17β-HSD10 enzyme in assay buffer (2.5 nM, FAC) was then added to the plates using the Preddator liquid handling robot (Redd and Whyte) and plates were incubated at room temperature for 15 minutes. 10 μL of substrate mixture (100 μM acetoacetyl-CoA and 100 μM NADH, FAC) was added with the Preddator. To start the reaction and the plates were left to incubate for 35 minutes at room temperature before the absorbance at 340 nm was read on the EnVision plate reader (PerkinElmer). For kinetic assay format and dose response follow up experiments the same protocol was adopted but the absorbance at 340 nm was monitored constantly for 45 minutes from immediately after the reaction was started.

| pEC50 | Max. Effect (%) | Hill Slope | Max. Fit | Min. Fit | 17β-HSD10 / ABAD activity in words (SAR discussion) | Compound |
| --- | --- | --- | --- | --- | --- | --- |
| < 4.70 | 20.8 |  |  |  |  | O=C(c1[nH]ncc1Cl)N1CCC[C@H]1c1ccccc1 [S1−T14, 4-chloro-5-{[(2S)-2-phenylpyrrolidin-1-yl]carbonyl}-1H-pyrazole] |
| < 4.70 | 27.5 |  |  |  |  | O=C(c1ccon1)N1CCC[C@H]1c1ccccc1 [S1−T5, 3-{[(2S)-2-phenylpyrrolidin-1-yl]carbonyl}-1,2-oxazole] |
| < 4.70 | 50 |  |  |  |  | COc1cccc(-c2ccccc2[C@@H]2CCCN2C(=O)c2cocn2)c1 (racemic) [ESC1002598] |
| 5.40 | 89 | 1.2 | 101 | 2 |  | COc1ccc(-c2ccc(-c3cn[nH]c3)s2)c(OC)c1OC [ESC1002024, 4-[5-(2,3,4-trimethoxyphenyl)-2-thienyl]-1H-pyrazole] |
| < 4.70 | 47 | 1.2 | 100 | −4 |  | CC(C)CN(C(=O)c1ccccc1F)c1cccc(N(C)Cc2cc[nH]n2)n1 [ESC1002796] |
| 6.01 | 94 | 0.75 | 104 | −8 |  | CC(C)CN(C(=O)c1ccccc1C(F)(F)F)c1cccc(N(C)Cc2c[nH]cn2)c1 [ESC1002493, N-[3-[1H-imidazol 4-ylmethyl(methyl)amino]phenyl]-N-isobutyl-2-(trifluoromethyl)benzamide] |
| < 4.70 | 45 |  |  |  |  | CC(C)CN(C(=O)c1cnccn1)c1cccc(N(C)Cc2c[nH]cn2)c1 [ESC1002656, N-[3-[1H-imidazol-4-ylmethyl(methyl)amino]phenyl]-N-isobutyl-pyrazine-2-carboxamide] |
| < 4.70 | 20.5 |  |  |  |  | O=C(c1nc(Br)no1)N1CCC[C@H]1c1ccccc1 [S1−T6] |
| < 4.70 | 15 |  |  |  |  | CC(C)CN(CC(C)C)c1cccc(N(C)Cc2cnc[nH]2)c1 [ESC1002025] |
| 5.16 | 76 | 0.9 | 108 | −6 |  | CC(C)CN(C(=O)c1ccccc1S(C)(=O)=O)c1cccc(N(C)Cc2c[nH]cn2)c1 [ESC1002622] |
| 6.08 | 93 | 1.2 | 94 | −4 |  | CCc1ccc(C(=O)N(CC(C)C)c2cccc(N(C)Cc3c[nH]cn3)c2)cc1 [ESC1002459, 4-ethyl-N-[3-[1H-imidazol-4-ylmethyl(methyl)amino]phenyl]-N-isobutyl-benzamide] |
|  | 93 | 1.2 | 93 | −1 |  | Cc1ccsc1C(=O)N1CCC[C@H]1c1ccccc1-c1cccc(C(F)(F)F)c1 (racemic) [ESC1002790] |
| 6.61 | 98 | 1.1 | 97 | −3 |  | COc1ccc(C(=O)N(CC(C)C)c2cccc(N(C)Cc3c[nH]cn3)c2)c(F)c1 [ESC1002576] |
| 6.34 | 96 | 1.1 | 97 | −8 |  | CC(C)CN(C(=O)c1ccc(F)cc1F)c1cccc(N(C)Cc2c[nH]cn2)c1 [ESC1002454, 2,4-difluoro-N-[3-[1H-imidazol-4-ylmethyl(methyl)amino]phenyl]-N-isobutyl-benzamide] |
| 5.09 | 72 | 0.95 | 100 | −1 |  | CC(C)CN(C(=O)c1ccccc1F)c1cccc(N(C)CCO)c1 [ESC1002577] |
| < 4.70 | 4 |  |  |  |  | CC(=O)NCCCN(C)c1cccc(N(CC(C)C)C(=O)c2ccccc2F)c1 [ESC1002507] |

| pEC50 | Max. Effect (%) | Hill Slope | Max. Fit | Min. Fit | 17β-HSD10 / ABAD activity in words (SAR discussion) | Compound |
| --- | --- | --- | --- | --- | --- | --- |
| < 4.70 | 45 | 0.93 | 100 | −3 | further losses in potency | CC(C)CN(C(=O)c1ccccc1F)c1cccc(N(C)Cc2c[nH]c(C(C)C)n2)c1 [ESC1002633] |
| 5.90 | 91 | 0.91 | 98 | −9 | less active | O=C(c1sccc1Cl)N1CCC[C@H]1c1ccccc1-c1cccc2[nH]ncc12 (racemic) [ESC1002702] |
| 5.08 | 59 | 1.2 | 80 | −5 |  | CC(C)CN(C(=O)c1ccccc1F)c1cccc(N(C)Cc2c[nH]c(C3CC3)n2)c1 [ESC1002674] |
| 4.95 | 65 | 0.98 | 100 | 2 |  | CNC(=O)CN(C)c1cccc(N(CC(C)C)C(=O)c2ccccc2F)c1 [ESC1002572] |
| < 4.70 | 27.9 |  |  |  |  | CCN(C(=O)C1CCCCN1C)c1cccc(N(C)Cc2cnc[nH]2)c1 (centres unmarked) [S2−T7, N-ethyl-N-[3-[1H-imidazol-5-ylmethyl(methyl)amino]phenyl]-1-methyl-piperidine-2-carboxamide] |
| 6.42 | 96 | 2.3 | 93 | 9 |  | Cc1ccsc1C(=O)N1CCC[C@@H]1c1ccccc1-c1ccc(F)cc1 [ESC1002423] |
|  | 11 |  |  |  |  | Cc1ccsc1C(=O)N1CCC[C@H]1c1ccccc1-c1cccc(C(F)(F)F)c1 (racemic) [ESC1002789] |
| < 4.70 | 43 |  |  |  |  | COc1cccc(-c2ccccc2[C@@H]2CCCN2C(=O)C23CC(C2)C3)c1 (racemic) [ESC1002602] |
| < 4.70 | 20 |  |  |  |  | O=C(c1sccc1Cl)N1CCC[C@H]1c1ccccc1-c1cccc(O)c1 (single isomer, unassigned) [ESC1002754] |
| 5.38 | 85 | 1.1 | 96 | −4 |  | O=C(c1sccc1Cl)N1CCC[C@H]1c1ccccc1-c1ccc(F)c(O)c1 (single isomer, unassigned) [ESC1002839] |
| < 4.70 | 12 |  |  |  |  | Cc1ccsc1C(=O)N1CCC[C@H]1c1ccccc1-c1cccc(Cl)c1 (single isomer, unassigned) [ESC1002768] |
| < 4.70 | 10 |  |  |  |  | COc1cccc(-c2ccccc2[C@@H]2CCCN2C(=O)c2nc[nH]n2)c1 (racemic) [ESC1002599] |
| < 4.70 | 20 |  |  |  |  | CC(C)CN(C(=O)c1ccccc1F)c1cncc(N(C)Cc2c[nH]cn2)c1 [ESC1002802] |
| < 4.70 | 4 |  |  |  |  | CNC(=O)CNc1cccc(N(CC(C)C)C(=O)c2ccccc2F)c1 [ESC1002573] |
| < 4.70 | 18 |  |  |  |  | O=C(c1[nH]ncc1Cl)N1CCC[C@H]1c1ccccc1-c1cccc(O)c1 (single isomer, unassigned) [ESC1002798] |

| Compound | pEC50 | Max. Effect (%) | Hill Slope | Max. Fit | Min. Fit | 17β-HSD10 / ABAD activity in words (SAR discussion) |
| --- | --- | --- | --- | --- | --- | --- |
| COc1cccc(-c2ccccc2[C@H]2CCCN2C(=O)c2ccccc2C)c1 [ESC1002434] | < 4.70 | 20 |  |  |  | not tolerated |
